These results are taken from PubChem BioAssay AID179 (DTP/NCI, 2004).

The experiment has as its system CEM cells HIV-1 protection, formazan growth assay. Put plainly: NCI AIDS Antiviral Assay. As to conditions: for IC50: measured here: growth of uninfected CEM cells. An outline of the steps: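 Protection of CEM cells against HIV-1 was scored from cell growth (soluble formazan) across five concentrations, with parallel uninfected cells. Lack of protection may reflect toxicity.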

With `O=C(/C=C/c1ccc(O)c([N+](=O)[O-])c1)CC(=O)/C=C/c1ccc(O)c([N+](=O)[O-])c1`, the EC50 (in general, the concentration at which the effect is half-maximal) is more than 200 µM and the concentration for half-maximal inhibition (IC50) (usually the concentration needed to halve the response being measured) was 25.7 µM.
On the same counts, the results for `Cc1c2ccccc2nc(CS(=O)(=O)c2ccccc2)[n+]1[O-]` are more than 200 µM and 12.6 µM.
On the same counts, the results for `CCc1cccc(C)c1NC(=O)CC1C(=O)Nc2ccccc2S1(=O)=O` (centres undefined) are more than 10 µM and more than 10 µM.
As for `Cc1cc(C)cc(Nc2cc(=O)[nH]c(=O)[nH]2)c1`, the EC50 is more than 200 µM and the concentration for half-maximal inhibition (IC50) was more than 200 µM.
For `CC1=CCC[C@H]2[C@](C)(CC3=CC(=O)C(Sc4ccccc4)=CC3=O)[C@@H](C)CC[C@]12C`, the EC50 is more than 200 µM and the half-inhibitory concentration (IC50) was 1.32 µM.
Take `COc1cc(C2c3cc4c(cc3OC(NNC(N)=O)C2C)OCO4)cc(OC)c1O` (centres undefined): the EC50 was more than 200 µM and the concentration for half-maximal inhibition (IC50) stood at 0.525 µM.
On the same counts, the results for `Clc1ccc(C=NC23CC4CC(CC(C4)C2)C3)cc1Cl` are more than 200 µM and 95.5 µM.
